In one experiment the test system is TNF-α mRNA. Kind of experiment: Inhibition of LPS-induced TNF-α expression in PMA differentiated THP-1 cells. The settings on record: LPS (1 ug/ml) and compound for 4 hours, LPS alone as 100%. The experiment is classed as cell-based, Human. The procedure: The purpose of the present study was to determine the inhibition of lipopolysaccharide(LPS)-induced TNF-α expression in phorbol merstyl ester (PMA) differentiated THP-1 cells.
Human monocytic leukaemia cell line (THP-1), differentiated into macrophage-like cells by PMA treatment was employed. Differentiated cells were treated with either LPS (1 ug/ml) alone or with LPS (1 ug/ml) and compound for 4 hours. Total RNA was isolated and expression of TNF-αmRNA along-with expression of 18S rRNA was monitored by real-time PCR. TNF-α mRNA expression was normalized relative to the expression of 18S rRNA Considering TNF-α expression for cells treated with LPS alone as 100%; the results for test compounds were expressed as % inhibition of TNF-α expression and are as shown in Table 4

The test system of the next experiment is HSP70b mRNA. In words: Cellular expression of HSP-70 mRNA in primary mixed neurons (real-time PCR). The experiment is classed as cell-based. Conditions: fold induction of HSP70b mRNA relative to vehicle treated control; primary mixed neurons from neonatal rat cerebellum; 4 hours; normalized to 18S rRNA. As for the experimental part: Experiments set forth in this section were conducted to determine whether the compounds of the present invention are able to elevate the expression of HSP-70 gene in cells.
Hela cell-line or primary mixed neurons derived from neonatal rat cerebellum were employed. Induction was carried out for the indicated dose(s) for 4 hours duration and total RNA was isolated. Expression of HSP70b mRNA along-with expression of 18S rRNA was monitored by real-time PCR. HSP70b mRNA expression was normalized relative to the expression of 18S rRNA.
The results for test compounds were expressed as fold induction of HSP-70 mRNA relative to vehicle treated control and are as shown in Table 2 & 3.

In the case of `CC1(C)CN(Cc2ccccc2)CC(=Cc2ccccn2)C1=O` [Compound 1, 1-Benzyl-3,3-dimethyl-5-[1-pyridin-2-yl-methylidene]-piperidin-4-one], the “TNF-alpha Inhibition” value in the experiment with TNF-α mRNA is reported as “(++++) (>80%)”.
Still for that read-out and setting: the same measure for `CC1(C)CN(C(=O)OCc2ccccc2)CC(=Cc2ccccn2)C1=O` [Compound 2, 3,3-Dimethyl-4-oxo-5-[1-pyridin-2-yl-methylidene]-piperidine-1-carboxylic acid benzyl ester]: “(+++) (61-80%)”; for `CC1(C)CN(Cc2ccccc2)CC(=Cc2ccc(C(=O)N3CCOCC3)cc2)C1=O` [Compound 7, 1-Benzyl-3,3-dimethyl-5-[1-[4-(morpholine-4-carbonyl)-phenyl]-methylidene]-piperidin-4-one]: “(+++) (61-80%)”; for `CSc1ccc(C=C2CN(Cc3ccccc3)CC(C)(C)C2=O)cc1` [Compound 8, 1-Benzyl-3,3-dimethyl-5-[1-(4-methylsulfanyl-phenyl)-methylidene]-piperidin-4-one]: “(++++) (>80%)”.
For the compound `CSc1ccc(C2/C(=C\c3cccc(N4CCOCC4)n3)C(=O)C(C)(C)CN2Cc2ccccc2)cc1` (stereo not drawn) [Compound 42, 1-Benzyl-5,5-dimethyl-2-(4-methylsulfanyl-phenyl)-3-[1-(6-morpholin-4-yl-pyridin-2-yl)-meth-(E)-ylidene]-piperidin-4-one], in the experiment with HSP70b mRNA, the “HSP Induction in mixed neuron” value is “(+++) (9-16 fold)”. In addition, the “TNF-alpha Inhibition” value with TNF-α mRNA is “(++) (41-60%)”.
On to `CC1(C)CN(Cc2ccccc2)C(c2ccc(C(F)(F)F)cc2)C(=Cc2cccc(N3CCOCC3)n2)C1=O` (stereo not drawn) [Compound 43, 1-Benzyl-5,5-dimethyl-3-[1-(6-morpholin-4-yl-pyridin-2-yl)-methylidene]-2-(4-trifluoromethyl-phenyl)-piperidin-4-one], for which, in the experiment with HSP70b mRNA, the “HSP Induction in mixed neuron” value is on record as “(+++) (9-16 fold)”. Further, the “TNF-alpha Inhibition” value in the experiment on TNF-α mRNA was “(++) (41-60%)”.
Consider `CC1(C)CN(Cc2ccccc2)C(c2ccc(Cl)c(Cl)c2)C(=Cc2ccccn2)C1=O` (stereo not drawn) [Compound 45, 1-Benzyl-2-(3,4-dichloro-phenyl)-5,5-dimethyl-3-[1-pyridin-2-yl-methylidene]-piperidin-4-one], for which the “HSP Induction in mixed neuron” value in the experiment with HSP70b mRNA was “(++) (5-8 fold)”.
As for `CSc1ccc(C2C(=Cc3ccccn3)C(=O)C(C)(C)CN2Cc2ccccc2)cc1` (stereo not drawn) [Compound 46, 1-Benzyl-5,5-dimethyl-2-(4-methylsulfanyl-phenyl)-3-[1-pyridin-2-yl-methylidene]-piperidin-4-one], the “HSP Induction in mixed neuron” value in the experiment with HSP70b mRNA is given as “(+++) (9-16 fold)”. Further, the “TNF-alpha Inhibition” value in the experiment with TNF-α mRNA is on record as “(++) (41-60%)”.
Taken in the same sequence, the figures for `COc1ccc(CN2CC(C)(C)C(=O)C(=Cc3ccccn3)C2c2ccccc2)cc1` (stereo not drawn) [Compound 47, 1-(4-Methoxy-benzyl)-5,5-dimethyl-2-phenyl-3-[1-pyridin-2-yl-methylidene]-piperidin-4-one] were “(++++) (>16 fold)” and “(+++) (61-80%)”.
On the same counts, the results for `COC(=O)N1CC(=Cc2ccccn2)C(=O)C(C)(C)C1Cc1ccc(OC)cc1` (stereo not drawn) [Compound 52, 2-(4-Methoxy-benzyl)-3,3-dimethyl-4-oxo-5-[1-pyridin-2-yl-methylidene]-piperidine-1-carboxylic acid methyl ester] are “(++) (5-8 fold)” and “(++++) (>80%)”.
Turning to `CC1(C)CN(Cc2cccs2)C(c2ccccc2F)C(=Cc2cccc(N3CCOCC3)n2)C1=O` (stereo not drawn) [Compound 57, 2-(2-Fluoro-phenyl)-5,5-dimethyl-3-[1-(6-morpholin-4-yl-pyridin-2-yl)-methylidene]-1-thiophen-2-ylmethyl-piperidin-4-one], in the experiment on HSP70b mRNA, the “HSP Induction in mixed neuron” value is reported as “(+) (2-4 fold)”.
In the case of `CC1(C)CN(Cc2cccs2)C(c2ccccc2F)C(=Cc2ccccn2)C1=O` (stereo not drawn) [Compound 58, (2-Fluoro-phenyl)-5,5-dimethyl-3-[1-pyridin-2-yl-methylidene]-1-thiophen-2-ylmethyl-piperidin-4-one], the “HSP Induction in mixed neuron” value in the experiment with HSP70b mRNA is on record as “(+) (2-4 fold)”.
`COc1ccc(CC2N(C(=S)Nc3ccccc3)CC(=Cc3ccccn3)C(=O)C2(C)C)cc1` (stereo not drawn) [Compound 60, 2-(4-Methoxy-benzyl)-3,3-dimethyl-4-oxo-5-[1-pyridin-2-yl-methylidene]-piperidine-1-carbothioic acid phenylamide]: the “HSP Induction in mixed neuron” value with HSP70b mRNA is “(++++) (>16 fold)”. In the experiment with TNF-α mRNA, the “TNF-alpha Inhibition” value was “(+++) (61-80%)”.
Turning to `CSc1ccc(C2C(=Cc3ccccn3)C(=O)C(C)(C)CN2Cc2cccs2)cc1` (stereo not drawn) [Compound 61, 5,5-Dimethyl-2-(4-methylsulfanyl-phenyl)-3-[1-pyridin-2-yl-methylidene]-1-thiophen-2-ylmethyl-piperidin-4-one], the “HSP Induction in mixed neuron” value in the experiment with HSP70b mRNA is given as “(++++) (>16 fold)”. Moreover, the “TNF-alpha Inhibition” value in the experiment on TNF-α mRNA was “(+++) (61-80%)”.
As for `COc1ccc(CN2CC(C)(C)C(=O)C(=Cc3cccc(N4CCOCC4)n3)C2c2ccccc2)cc1` (stereo not drawn) [Compound 62, 1-(4-Methoxy-benzyl)-5,5-dimethyl-3-[1-(6-morpholin-4-yl-pyridin-2-yl)-methylidene]-2-phenyl-piperidin-4-one], in the experiment on HSP70b mRNA, the “HSP Induction in mixed neuron” value was “(+) (2-4 fold)”.
In the case of `COc1ccc(CN2CC(C)(C)C(=O)C(=Cc3cccc(N4CCOCC4)n3)C2c2ccc(C(F)(F)F)cc2)cc1` (stereo not drawn) [Compound 63, 1-(4-Methoxy-benzyl)-5,5-dimethyl-3-[1-(6-morpholin-4-yl-pyridin-2-yl)-methylidene]-2-(4-trifluoromethyl-phenyl)-piperidin-4-one], the “HSP Induction in mixed neuron” value in the experiment on HSP70b mRNA is “(++) (5-8 fold)”. The “TNF-alpha Inhibition” value with TNF-α mRNA is on record as “(++) (41-60%)”.
On to `Cc1cc(N2CC(=Cc3ccccn3)C(=O)C(C)(C)C2)no1` [Compound 64, 3,3-Dimethyl-1-(5-methyl-isoxazol-3-yl)-5-[1-pyridin-2-yl-methylidene]-piperidin-4-one], for which, in the experiment with HSP70b mRNA, the “HSP Induction in mixed neuron” value is given as “(++++) (>16 fold)”.
Consider `Cc1cc(N2CC(C)(C)C(=O)C(=Cc3cccc(N4CCOCC4)n3)C2c2ccccc2)no1` (stereo not drawn) [Compound 65, 5,5-Dimethyl-1-(5-methyl-isoxazol-3-yl)-3-[1-(6-morpholin-4-yl-pyridin-2-yl)-methylidene]-2-phenyl-piperidin-4-one], for which the “HSP Induction in mixed neuron” value in the experiment on HSP70b mRNA is reported as “(+++) (9-16 fold)”. Further, in the experiment on TNF-α mRNA, the “TNF-alpha Inhibition” value is on record as “(+++) (61-80%)”.
Regarding `COc1ccc(CC2N(C(=O)NCc3ccccc3)CC(=Cc3ccccn3)C(=O)C2(C)C)cc1` (stereo not drawn) [Compound 66, 2-(4-Methoxy-benzyl)-3,3-dimethyl-4-oxo-5-[1-pyridin-2-yl-methylidene]-piperidine-1-carboxylic acid benzylamide], the “HSP Induction in mixed neuron” value in the experiment with HSP70b mRNA was “(++) (5-8 fold)”.
With `CC1(C)CN(Cc2ccc(F)cc2)CC(=Cc2cccc(N3CCOCC3)n2)C1=O` [Compound 73, 1-(4-Fluoro-benzyl)-3,3-dimethyl-5-[1-(6-morpholin-4-yl-pyridin-2-yl)-methylidene]-piperidin-4-one], in the experiment with HSP70b mRNA, the “HSP Induction in mixed neuron” value is “(+) (2-4 fold)”.
Consider `CC1(C)CN(Cc2ccc(F)cc2)C(c2ccccc2)C(=Cc2ccccn2)C1=O` (stereo not drawn) [Compound 76, 1-(4-Fluoro-benzyl)-5,5-dimethyl-2-phenyl-3-[1-pyridin-2-yl-methylidene]-piperidin-4-one], for which, in the experiment on HSP70b mRNA, the “HSP Induction in mixed neuron” value is “(+) (2-4 fold)”.
Turning to `CC1(C)CN(Cc2ccc(F)cc2)C(c2ccccc2)C(=Cc2cccc(N3CCOCC3)n2)C1=O` (stereo not drawn) [Compound 81, 1-(4-Fluoro-benzyl)-5,5-dimethyl-3-[1-(6-morpholin-4-yl-pyridin-2-yl)-methylidene]-2-phenyl-piperidin-4-one], the “HSP Induction in mixed neuron” value in the experiment with HSP70b mRNA is “(+) (2-4 fold)”.
On to `COc1ccc(CN2CC(C)(C)C(=O)C(=Cc3cccc(N4CCOCC4)n3)C2c2ccccc2F)cc1` (stereo not drawn) [Compound 86, 2-(2-Fluoro-phenyl)-1-(4-methoxy-benzyl)-5,5-dimethyl-3-[1-(6-morpholin-4-yl-pyridin-2-yl)-methylidene]-piperidin-4-one], for which, in the experiment on HSP70b mRNA, the “HSP Induction in mixed neuron” value was “(+) (2-4 fold)”.
In the case of `COc1ccc(C2C(=Cc3cccc(N4CCOCC4)n3)C(=O)C(C)(C)CN2Cc2ccccc2)c(F)c1` (stereo not drawn) [Compound 92, 1-Benzyl-2-(2-fluoro-4-methoxy-phenyl)-5,5-dimethyl-3-[1-(6-morpholin-4-yl-pyridin-2-yl)-methylidene]-piperidin-4-one], the “HSP Induction in mixed neuron” value in the experiment with HSP70b mRNA is listed as “(++) (5-8 fold)”.
On the same count and under the same terms, the result for `CC1(C)CN(CCc2ccccc2)C(c2ccccc2)C(=Cc2ccccn2)C1=O` (stereo not drawn) [Compound 94, 5,5-Dimethyl-1-phenethyl-2-phenyl-3-[1-pyridin-2-yl-methylidene]-piperidin-4-one] reads “(+) (2-4 fold)”; that for `CC1(C)CN(CCc2ccccc2)C(c2ccccc2)C(=Cc2cccc(N3CCOCC3)n2)C1=O` (stereo not drawn) [Compound 95, 5,5-Dimethyl-3-[1-(6-morpholin-4-yl-pyridin-2-yl)-methylidene]-1-phenethyl-2-phenyl-piperidin-4-one], “(++) (5-8 fold)”.
Still for that read-out and setting: the result for `Cc1ccc(CN2CC(C)(C)C(=O)C(=Cc3cccc(N4CCOCC4)n3)C2c2ccccc2)cc1` (stereo not drawn) [Compound 232, 5,5-Dimethyl-1-(4-methyl-benzyl)-3-[1-(6-morpholin-4-yl-pyridin-2-yl)-methylidene]-2-phenyl-piperidin-4-one] reads “(++) (5-8 fold)”.

For the origin of these results see patent publication US20100190824A1, “Novel Substituted Piperidones as HSP Inducers” (priority 2007, published 2010).
